Patent publication US10039753B2, “Imidazo[4,5-c]quinoline and imidazo[4,5-c][1,5]naphthyridine derivatives as LRRK2 inhibitors” (Pfizer Inc., priority 2015, dated 2018)
Counter-ions that a name gives are not always drawn.

Assays:
[1] = molecular target: T1, GST-tagged truncated LRRK2 (Homo sapiens, UniProt Q5S007); test: LRRK2 Assay, Format 1 (Lantha Screen), WT; assay type: biochemical
T1 construct: GST-tagged truncated LRRK2 from Invitrogen (Cat # PV4874); GST; purchased Invitrogen PV4874
Summary of the method: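 Kinase activity measured by TR-FRET: GST-tagged truncated LRRK2 (4 μg/mL working solution) reacted with fluorescein-labeled LRRKtide (ERM-based peptide) across a compound dose response for 2 h at room temperature. Reaction stopped with EDTA-containing detection buffer (20 mM Tris pH 7.6) holding 2 nM terbium anti-phospho-ERM antibody.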

[2] = molecular target: T1, GST-tagged truncated LRRK2; test: LRRK2 Assay, Format 2 (Lantha Screen), WT; assay type: biochemical; conditions: geometric mean of 2-4 determinations unless otherwise indicated (a: >=5; b: single determination)
mutant G2019S LRRK2 [3] = molecular target: T2, mutant G2019S LRRK2 (Homo sapiens, UniProt Q5S007, G2019S); test: LRRK2 Assay, Format 2 (Lantha Screen), G2019S mutant; assay type: biochemical; set-up: purchased Invitrogen PV4881; conditions: geometric mean of 2-4 determinations unless otherwise indicated (a: >=5; b: single determination); read-out: LRRK2, Format 2 G2019S IC50
mutant G2019S LRRK2 [4] = molecular target: T2, mutant G2019S LRRK2; test: LRRK2 Assay, Format 1 (Lantha Screen), G2019S mutant
Protocol: LRRK2 kinase activity was measured using Lantha Screen technology from Invitrogen. GST-tagged truncated LRRK2 from Invitrogen (Cat # PV4874) was incubated with a fluorescein-labeled peptide substrate based upon ezrin/radixin/moesin (ERM), also known as LRRKtide (Invitrogen cat # PR8976A), in the presence of a dose response of compound. Upon completion, the assay was stopped and detected with a terbium labeled anti-phospho-ERM antibody (Invitrogen, cat # PR8975A). […] Aliquots (3.5 μL) of the 100% DMSO dose response were mixed with 46.5 μL water then 1 μL of this mixture was added to the 3 μL substrate mix in the 384-well plate. The kinase reaction was started with 3 μL of a working solution of LRRK2 enzyme at a concentration of 4 μg/mL. […] The reaction was allowed to progress at room temperature for two hours and then stopped with the addition of 7 μL of detection buffer (20 mM Tris pH 7.6, 0.01% NP-40, 0.02% NaN3, 6 mM EDTA with 2 nM terbium labeled anti-phospho-ERM).
All final concentrations of substrate ATP and enzyme were the same.

[5] = geometric mean of 2-4 determinations unless otherwise indicated
[6] = Format 1, wild-type LRRK2, geometric mean of 2-4 determinations unless footnoted (a: ≥5 determinations; b: single determination; c: determined on trifluoroacetate salt)
[7] = 100 nM LRRKtide, 50 μM ATP, 1.7 μg/mL LRRK2 enzyme, two hours at room temperature

T1 sequence (Q5S007 970-2527 limits assumed): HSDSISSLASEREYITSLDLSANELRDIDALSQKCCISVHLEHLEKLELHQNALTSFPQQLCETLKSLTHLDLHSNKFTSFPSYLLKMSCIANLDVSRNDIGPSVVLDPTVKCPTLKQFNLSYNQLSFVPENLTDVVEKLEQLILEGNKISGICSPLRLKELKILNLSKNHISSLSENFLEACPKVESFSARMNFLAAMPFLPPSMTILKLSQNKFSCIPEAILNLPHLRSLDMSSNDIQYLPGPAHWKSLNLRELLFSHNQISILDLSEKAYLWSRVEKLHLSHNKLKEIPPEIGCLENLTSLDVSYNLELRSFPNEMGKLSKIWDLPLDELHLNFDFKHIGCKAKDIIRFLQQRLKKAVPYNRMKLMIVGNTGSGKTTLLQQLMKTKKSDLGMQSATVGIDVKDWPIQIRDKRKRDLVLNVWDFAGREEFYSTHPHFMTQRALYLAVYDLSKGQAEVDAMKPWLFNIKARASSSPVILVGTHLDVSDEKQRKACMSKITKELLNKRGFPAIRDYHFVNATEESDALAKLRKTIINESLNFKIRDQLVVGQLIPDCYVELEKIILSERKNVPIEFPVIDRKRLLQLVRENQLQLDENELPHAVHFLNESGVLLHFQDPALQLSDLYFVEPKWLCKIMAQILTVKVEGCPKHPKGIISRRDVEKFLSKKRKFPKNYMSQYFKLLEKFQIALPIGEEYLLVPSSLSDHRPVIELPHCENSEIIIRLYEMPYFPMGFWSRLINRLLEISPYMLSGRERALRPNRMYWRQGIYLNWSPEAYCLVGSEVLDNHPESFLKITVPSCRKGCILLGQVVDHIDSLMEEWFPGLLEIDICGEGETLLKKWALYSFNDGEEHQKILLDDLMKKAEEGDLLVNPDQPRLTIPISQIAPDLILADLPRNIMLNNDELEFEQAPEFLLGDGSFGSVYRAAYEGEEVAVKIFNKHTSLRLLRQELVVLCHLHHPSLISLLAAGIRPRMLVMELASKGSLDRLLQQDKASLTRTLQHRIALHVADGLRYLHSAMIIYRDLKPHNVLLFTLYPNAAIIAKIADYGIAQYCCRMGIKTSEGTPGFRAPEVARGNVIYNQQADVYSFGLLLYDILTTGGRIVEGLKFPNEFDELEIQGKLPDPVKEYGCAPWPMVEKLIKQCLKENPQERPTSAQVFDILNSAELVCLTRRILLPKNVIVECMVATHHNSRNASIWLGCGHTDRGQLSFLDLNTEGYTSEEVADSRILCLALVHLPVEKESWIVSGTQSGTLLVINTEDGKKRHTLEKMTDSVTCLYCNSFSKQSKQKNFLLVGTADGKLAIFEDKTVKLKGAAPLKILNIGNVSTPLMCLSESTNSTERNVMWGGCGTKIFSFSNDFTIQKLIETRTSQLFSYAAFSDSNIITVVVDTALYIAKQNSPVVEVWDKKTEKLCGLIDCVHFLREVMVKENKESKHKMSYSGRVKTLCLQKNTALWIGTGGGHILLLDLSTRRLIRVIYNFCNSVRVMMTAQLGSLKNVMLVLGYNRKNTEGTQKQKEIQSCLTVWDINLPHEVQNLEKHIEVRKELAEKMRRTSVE
T2 sequence (Q5S007 970-2527 G2019S limits assumed): as the sequence (Q5S007 970-2527 limits assumed) above, with G1050S counted along it

IC50 (mutant G2019S LRRK2 [4]) [nM]	IC50 [1, 6] [nM]	further results	SMILES
3.78		IC50 [1, 5]: 3.48 nM; IC50 [2]: 7.68 nM; IC50 (mutant G2019S LRRK2 [3]): 7.78 nM	Cc1cc(Cc2nc3cnc4ccc(Cl)cc4c3n2[C@@H]2CCO[C@H](CC#N)C2)no1 (single isomer, unassigned; ent-1) [Example 134, [cis-4-{8-chloro-2-[(5-methyl-1,2-oxazol-3-yl)methyl]-1H-imidazo[4,5-c]quinolin-1-yl}tetrahydro-2H-pyran-2-yl]acetonitrile, ENT-1]
4.8		IC50 [1, 5]: 4.78 nM; IC50 [2]: 6.98 nM; IC50 (mutant G2019S LRRK2 [3]): 7.33 nM	C[C@@H]1C[C@H](n2c(Cc3cc(C4CC4)on3)nc3cnc4ccc(C#N)cc4c32)CCO1 [Example 145, 2-[(5-cyclopropyl-1,2-oxazol-3-yl)methyl]-1-[(2R,4R)-2-methyltetrahydro-2H-pyran-4-yl]-1H-imidazo[4,5-c]quinoline-8-carbonitrile]
15.9		IC50 [1, 5]: 17.1 nM; IC50 [2]: 5.2 nM; IC50 (mutant G2019S LRRK2 [3]): 5.35 nM	CC(C)c1cc(Cc2nc3cnc4ccc(Br)cc4c3n2[C@@H]2CCO[C@H](C)C2)no1 [Example 171, 8-bromo-1-[(2R,4R)-2-methyltetrahydro-2H-pyran-4-yl]-2-{[5-(propan-2-yl)-1,2-oxazol-3-yl]methyl}-1H-imidazo[4,5-c]quinoline]
9.17		IC50 [1, 5]: 14.4 nM; IC50 [2]: 6 nM; IC50 (mutant G2019S LRRK2 [3]): 6.34 nM	C[C@@H]1C[C@H](n2c(Cc3cc(C4CC4)on3)nc3cnc4ccc(Br)cc4c32)CCO1 [Example 172, 8-bromo-2-[(5-cyclopropyl-1,2-oxazol-3-yl)methyl]-1-[(2R,4R)-2-methyltetrahydro-2H-pyran-4-yl]-1H-imidazo[4,5-c]quinoline]
12.1	16.1		Clc1ccc2ncc3nc(Cc4ccon4)n(C4CCOCC4)c3c2c1 [Example 63, 8-chloro-2-(1,2-oxazol-3-ylmethyl)-1-(tetrahydro-2H-pyran-4-yl)-1H-imidazo[4,5-c]quinoline, formate salt]
403		IC50 [1, 7]: 699 nM	CC[C@H]1C[C@@H](n2c(Cc3ccon3)nc3cnc4ccc(C#N)cc4c32)CCO1 [enantiomer of Example 67, 1-[(2S,4S)-2-ethyltetrahydro-2H-pyran-4-yl]-2-(1,2-oxazol-3-ylmethyl)-1H-imidazo[4,5-c]quinoline-8-carbonitrile]
5.2	10		C[C@H]1C[C@@H](n2c(Cc3cscn3)nc3cnc4ccc(Br)cc4c32)CCO1 (racemic) [Example 56, 8-bromo-1-(cis-2-methyltetrahydro-2H-pyran-4-yl)-2-(1,3-thiazol-4-ylmethyl)-1H-imidazo[4,5-c]quinoline]
5.6	7.6		C[C@H]1C[C@@H](n2c(Cc3cn4ncsc4n3)nc3cnc4ccc(F)cc4c32)CCO1 (racemic) [Example 86, 8-fluoro-2-(imidazo[2,1-b][1,3,4]thiadiazol-6-ylmethyl)-1-(cis-2-methyltetrahydro-2H-pyran-4-yl)-1H-imidazo[4,5-c]quinoline]
241		IC50 [1, 7]: 687 nM	C[C@H]1C[C@@H](n2c(Cn3cncn3)nc3cnc4ccc(Cl)cc4c32)CCO1 [enantiomer of Example 65, 8-chloro-1-[(2S,4S)-2-methyltetrahydro-2H-pyran-4-yl]-2-(1H-1,2,4-triazol-1-ylmethyl)-1H-imidazo[4,5-c]quinoline]
80.6	103		CC1(C)CC(n2c(Cc3ccon3)nc3cnc4ccccc4c32)CCO1 (stereo not shown) [Example 47, 1-(2,2-dimethyltetrahydro-2H-pyran-4-yl)-2-(1,2-oxazol-3-ylmethyl)-1H-imidazo[4,5-c]quinoline]
4	6.1		C[C@@H]1C[C@H](n2c(Cc3cscn3)nc3cnc4ccc(C#N)cc4c32)CCO1 [Example 57, 1-[(2R,4R)-2-methyltetrahydro-2H-pyran-4-yl]-2-(1,3-thiazol-4-ylmethyl)-1H-imidazo[4,5-c]quinoline-8-carbonitrile]
120	141		CC(C)(O)c1cn(Cc2nc3cnc4ccccc4c3n2C2CCOCC2)nn1 [Example 40, 2-(1-{[1-(tetrahydro-2H-pyran-4-yl)-1H-imidazo[4,5-c]quinolin-2-yl]methyl}-1H-1,2,3-triazol-4-yl)propan-2-ol]
170	156		CC1(C)CC(n2c(Cc3cscn3)nc3cnc4ccccc4c32)CCO1 (stereo not shown) [Example 72, 1-(2,2-dimethyltetrahydro-2H-pyran-4-yl)-2-(1,3-thiazol-4-ylmethyl)-1H-imidazo[4,5-c]quinoline, trifluoroacetate salt]
157	103		Cc1cc(Cc2nc3cnc4ccccc4c3n2C2CCOCC2)no1 [Example 39, 2-[(5-methyl-1,2-oxazol-3-yl)methyl]-1-(tetrahydro-2H-pyran-4-yl)-1H-imidazo[4,5-c]quinoline]
62	72		C[C@H]1C[C@H](n2c(Cc3ccon3)nc3cnc4ccc(C#N)cc4c32)CCO1 [Example 24, 1-[(2S,4R)-2-methyltetrahydro-2H-pyran-4-yl]-2-(1,2-oxazol-3-ylmethyl)-1H-imidazo[4,5-c]quinoline-8-carbonitrile]
16.2	17.6		Fc1ccc2ncc3nc(Cc4cn5ncsc5n4)n(C4CCOCC4)c3c2c1 [Example 82, 8-fluoro-2-(imidazo[2,1-b][1,3,4]thiadiazol-6-ylmethyl)-1-(tetrahydro-2H-pyran-4-yl)-1H-imidazo[4,5-c]quinoline, trifluoroacetate salt]
47.3	53.8		CC1(C)CC(n2c(Cn3cc(C4CC4)nn3)nc3cnc4ccc(F)cc4c32)CCO1 (stereo not shown) [Example 79, 2-[(4-cyclopropyl-1H-1,2,3-triazol-1-yl)methyl]-1-(2,2-dimethyltetrahydro-2H-pyran-4-yl)-8-fluoro-1H-imidazo[4,5-c]quinoline, trifluoroacetate salt]
66.5	77.7		COc1ccc(Cc2nc3cnc4ccc(F)cc4c3n2C2CCOC(C)(C)C2)nc1 (stereo not shown) [Example 70, 1-(2,2-dimethyltetrahydro-2H-pyran-4-yl)-8-fluoro-2-[(5-methoxypyridin-2-yl)methyl]-1H-imidazo[4,5-c]quinoline]
39.5	52.1		CC1(C)CC(n2c(Cc3cscn3)nc3cnc4ccc(F)cc4c32)CCO1 (stereo not shown) [Example 80, 1-(2,2-dimethyltetrahydro-2H-pyran-4-yl)-8-fluoro-2-(1,3-thiazol-4-ylmethyl)-1H-imidazo[4,5-c]quinoline, trifluoroacetate salt]
54.5	67.5		Fc1ccc2ncc3nc(Cn4cc5ccccc5n4)n(C4CCOCC4)c3c2c1 [Example 76, 8-fluoro-2-(2H-indazol-2-ylmethyl)-1-(tetrahydro-2H-pyran-4-yl)-1H-imidazo[4,5-c]quinoline, trifluoroacetate salt]
98.4	76.3		CC1(C)CC(n2c(Cc3cn4ncsc4n3)nc3cnc4ccccc4c32)CCO1 (stereo not shown) [Example 73, 1-(2,2-dimethyltetrahydro-2H-pyran-4-yl)-2-(imidazo[2,1-b][1,3,4]thiadiazol-6-ylmethyl)-1H-imidazo[4,5-c]quinoline, trifluoroacetate salt]
16.4	32.5		CC[C@H]1C[C@@H](n2c(Cc3ccon3)nc3cnc4ccc(Br)cc4c32)CCO1 (racemic) [Example 66, 8-bromo-1-(cis-2-ethyltetrahydro-2H-pyran-4-yl)-2-(1,2-oxazol-3-ylmethyl)-1H-imidazo[4,5-c]quinoline]
52.9	61.1		c1ccc2nn(Cc3nc4cnc5ccccc5c4n3C3CCOCC3)cc2c1 [Example 45, 2-(2H-indazol-2-ylmethyl)-1-(tetrahydro-2H-pyran-4-yl)-1H-imidazo[4,5-c]quinoline]
49.3	109	LRRK2 potency compared to Example 5 (its enantiomer) ([1]; qualitative statement referring to Table 3 data): significantly less potent	Cc1nc(Cc2nc3cnc4ccc(Cl)cc4c3n2[C@H]2CCO[C@@H](C)C2)no1 [Example 51, 8-chloro-2-[(5-methyl-1,2,4-oxadiazol-3-yl)methyl]-1-[(2S,4S)-2-methyltetrahydro-2H-pyran-4-yl]-1H-imidazo[4,5-c]quinoline]
21.2	25.4		Cc1nn2cc(Cc3nc4cnc5ccc(F)cc5c4n3C3CCOC(C)(C)C3)nc2s1 (stereo not shown) [Example 83, 1-(2,2-dimethyltetrahydro-2H-pyran-4-yl)-8-fluoro-2-[(2-methylimidazo[2,1-b][1,3,4]thiadiazol-6-yl)methyl]-1H-imidazo[4,5-c]quinoline, trifluoroacetate salt]
93.5	124		c1ccc2c(c1)ncc1nc(Cn3nnc4ccccc43)n(C3CCOCC3)c12 [Example 41, 2-(1H-benzotriazol-1-ylmethyl)-1-(tetrahydro-2H-pyran-4-yl)-1H-imidazo[4,5-c]quinoline]
